Test results reported in patent publication US11098044B2, “Imidazopyridinyl compounds and use thereof for treatment of neurodegenerative disorders” (1ST Biotherapeutics, Inc., priority 2019, dated 2021).

Tests used:
Type in all cases: biochemical
[1] = target: c-Abl (His-tagged recombinant human ABL1) (Homo sapiens (Human), UniProt P00519); test: c-abl Kinase Assay (ADP-Glo); settings: ATP (25 μM), Abltide substrate
Summary of the method: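 His-tagged human ABL1 (0.25 ng/μl), Abltide (0.01 μg/μl) and ATP (25 μM), each at its added concentration, reacted with compound (0.5% DMSO) for 30 min at 30 °C. Buffer was 50 mM HEPES pH 7.5, 10 mM MgCl2, 1 mM EGTA, 0.05% BSA, 0.01% Triton X-100, 2 mM DTT. ADP formed was read by ADP-Glo luminescence, and IC50 was fitted from percent inhibition across concentrations.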

LRRK2 G2019S = LRRK2 G2019S (Homo sapiens (Human), UniProt Q5S007, G2019S); test: LRRK2 G2019S Kinase Assay (Adapta); settings: 100 μM ATP, LRRKtide substrate; read-out: LRRK2_G2019S IC50
Sequence of LRRK2 G2019S (Q5S007 whole entry G2019S): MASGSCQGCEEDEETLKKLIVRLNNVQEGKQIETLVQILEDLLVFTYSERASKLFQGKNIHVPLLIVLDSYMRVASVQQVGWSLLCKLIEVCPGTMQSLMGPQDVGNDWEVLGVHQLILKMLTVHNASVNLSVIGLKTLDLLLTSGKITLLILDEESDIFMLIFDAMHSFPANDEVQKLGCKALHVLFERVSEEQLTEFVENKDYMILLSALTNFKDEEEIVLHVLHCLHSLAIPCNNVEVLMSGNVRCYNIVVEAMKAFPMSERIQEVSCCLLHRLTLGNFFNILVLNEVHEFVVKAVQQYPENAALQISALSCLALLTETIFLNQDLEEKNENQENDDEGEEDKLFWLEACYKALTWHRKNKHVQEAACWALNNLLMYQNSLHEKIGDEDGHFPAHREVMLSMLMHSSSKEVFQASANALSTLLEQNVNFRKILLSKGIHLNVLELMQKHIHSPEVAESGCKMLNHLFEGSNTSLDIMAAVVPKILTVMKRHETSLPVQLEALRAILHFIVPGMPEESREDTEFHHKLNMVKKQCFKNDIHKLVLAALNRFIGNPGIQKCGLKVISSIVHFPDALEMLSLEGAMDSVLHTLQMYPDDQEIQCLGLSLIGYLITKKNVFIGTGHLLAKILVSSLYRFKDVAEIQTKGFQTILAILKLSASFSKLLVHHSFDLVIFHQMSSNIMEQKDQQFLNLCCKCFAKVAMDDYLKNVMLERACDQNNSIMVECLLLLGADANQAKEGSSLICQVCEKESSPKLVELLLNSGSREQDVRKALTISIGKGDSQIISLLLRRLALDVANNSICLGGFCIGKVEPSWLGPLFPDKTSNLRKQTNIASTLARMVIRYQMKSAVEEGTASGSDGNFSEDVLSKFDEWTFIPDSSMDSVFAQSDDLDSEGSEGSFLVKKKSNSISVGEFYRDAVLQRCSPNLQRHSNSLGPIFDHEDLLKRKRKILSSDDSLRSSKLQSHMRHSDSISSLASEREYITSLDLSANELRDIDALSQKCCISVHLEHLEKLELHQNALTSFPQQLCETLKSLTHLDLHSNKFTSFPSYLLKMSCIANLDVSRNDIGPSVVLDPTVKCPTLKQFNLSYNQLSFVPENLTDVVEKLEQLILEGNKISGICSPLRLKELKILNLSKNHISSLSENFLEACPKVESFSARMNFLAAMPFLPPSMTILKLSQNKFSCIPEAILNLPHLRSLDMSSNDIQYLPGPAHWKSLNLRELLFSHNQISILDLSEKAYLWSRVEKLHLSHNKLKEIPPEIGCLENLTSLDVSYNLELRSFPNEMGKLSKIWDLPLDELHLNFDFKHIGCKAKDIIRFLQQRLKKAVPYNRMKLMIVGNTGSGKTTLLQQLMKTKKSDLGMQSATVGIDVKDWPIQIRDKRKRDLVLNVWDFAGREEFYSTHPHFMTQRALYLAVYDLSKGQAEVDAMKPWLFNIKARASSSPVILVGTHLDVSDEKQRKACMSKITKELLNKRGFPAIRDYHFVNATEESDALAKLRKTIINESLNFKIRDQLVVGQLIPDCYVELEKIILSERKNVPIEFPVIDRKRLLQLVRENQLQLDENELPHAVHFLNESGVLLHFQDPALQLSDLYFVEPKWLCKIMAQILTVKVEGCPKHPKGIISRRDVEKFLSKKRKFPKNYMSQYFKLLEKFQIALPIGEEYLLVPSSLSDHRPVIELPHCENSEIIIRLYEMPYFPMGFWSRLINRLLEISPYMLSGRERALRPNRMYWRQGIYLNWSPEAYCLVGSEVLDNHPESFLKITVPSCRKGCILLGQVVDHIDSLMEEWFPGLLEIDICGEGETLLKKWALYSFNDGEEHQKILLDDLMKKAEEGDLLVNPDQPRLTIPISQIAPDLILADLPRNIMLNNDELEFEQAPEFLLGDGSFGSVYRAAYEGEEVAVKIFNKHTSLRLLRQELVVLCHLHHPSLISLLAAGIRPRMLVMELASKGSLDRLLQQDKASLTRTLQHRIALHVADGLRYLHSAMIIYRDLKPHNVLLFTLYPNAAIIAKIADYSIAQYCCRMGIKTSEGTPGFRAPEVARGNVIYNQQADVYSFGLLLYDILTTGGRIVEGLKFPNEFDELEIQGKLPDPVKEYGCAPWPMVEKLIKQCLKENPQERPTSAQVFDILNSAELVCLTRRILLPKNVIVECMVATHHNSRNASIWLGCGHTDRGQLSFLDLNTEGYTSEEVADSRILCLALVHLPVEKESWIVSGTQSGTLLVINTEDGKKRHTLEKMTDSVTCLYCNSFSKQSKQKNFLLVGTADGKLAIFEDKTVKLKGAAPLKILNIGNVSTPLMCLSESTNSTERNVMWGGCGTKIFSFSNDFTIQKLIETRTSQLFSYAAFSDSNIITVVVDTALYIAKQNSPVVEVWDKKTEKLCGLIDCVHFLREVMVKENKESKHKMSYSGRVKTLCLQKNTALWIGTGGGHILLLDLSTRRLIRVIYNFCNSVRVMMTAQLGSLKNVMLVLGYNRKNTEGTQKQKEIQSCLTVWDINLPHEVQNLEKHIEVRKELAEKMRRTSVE
Summary of the method: (§1)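 Adapta TR-FRET kinase assay with LRRKtide substrate in 50 mM Tris pH 8.5, 0.01% BRIJ-35, 10 mM MgCl2, 1 mM EGTA, 0.02% NaN3. ATP at Km: 70 μM for WT LRRK2, 100 μM for G2019S. Reaction 1 h at room temperature; after 60 min with detection mix, 665/615 nm emission ratio read.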

LRRK2 (WT) = LRRK2 (WT) (Homo sapiens (Human), UniProt Q5S007); test: LRRK2 Kinase Assay (Adapta); settings: 70 μM ATP, LRRKtide substrate
Sequence of LRRK2 (WT) (Q5S007 whole entry): as the sequence (Q5S007 whole entry G2019S) above, with S2019G counted along it
Summary of the method: as §1

Sequence of c-Abl (His-tagged recombinant human ABL1) (P00519 whole entry): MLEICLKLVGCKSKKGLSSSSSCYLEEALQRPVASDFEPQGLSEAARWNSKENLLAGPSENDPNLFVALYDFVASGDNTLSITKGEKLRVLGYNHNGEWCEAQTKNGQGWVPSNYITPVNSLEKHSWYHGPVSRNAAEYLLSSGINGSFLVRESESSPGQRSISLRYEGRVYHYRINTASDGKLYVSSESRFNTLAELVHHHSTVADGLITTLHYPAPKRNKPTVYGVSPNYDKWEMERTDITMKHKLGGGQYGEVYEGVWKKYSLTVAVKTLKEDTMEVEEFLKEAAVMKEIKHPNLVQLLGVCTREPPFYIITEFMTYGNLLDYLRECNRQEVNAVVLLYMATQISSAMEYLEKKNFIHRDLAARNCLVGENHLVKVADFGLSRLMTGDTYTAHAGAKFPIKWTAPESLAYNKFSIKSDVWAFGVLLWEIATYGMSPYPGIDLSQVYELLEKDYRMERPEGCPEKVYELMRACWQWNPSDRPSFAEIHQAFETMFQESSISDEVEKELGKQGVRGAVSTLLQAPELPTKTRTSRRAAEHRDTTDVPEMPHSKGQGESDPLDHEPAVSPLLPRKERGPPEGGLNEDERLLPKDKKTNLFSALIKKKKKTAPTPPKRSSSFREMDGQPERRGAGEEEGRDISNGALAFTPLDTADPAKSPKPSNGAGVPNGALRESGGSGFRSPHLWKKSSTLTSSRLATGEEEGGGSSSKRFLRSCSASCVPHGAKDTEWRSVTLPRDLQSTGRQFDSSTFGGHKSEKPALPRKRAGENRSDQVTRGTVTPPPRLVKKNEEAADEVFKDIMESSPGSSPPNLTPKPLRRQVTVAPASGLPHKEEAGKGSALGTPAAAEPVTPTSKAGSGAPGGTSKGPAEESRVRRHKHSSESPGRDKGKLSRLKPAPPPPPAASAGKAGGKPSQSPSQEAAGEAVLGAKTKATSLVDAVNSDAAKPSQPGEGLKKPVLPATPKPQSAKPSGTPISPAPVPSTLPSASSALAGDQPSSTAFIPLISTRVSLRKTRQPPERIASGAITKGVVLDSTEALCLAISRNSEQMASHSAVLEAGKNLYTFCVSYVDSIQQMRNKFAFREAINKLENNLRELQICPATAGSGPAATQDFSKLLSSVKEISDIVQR

SMILES	IC50 [1] [nM]	IC50 (LRRK2 G2019S) [nM]	IC50 (LRRK2 (WT)) [nM]
Cc1c(F)cc(N)cc1-c1ccc2nc(NC(=O)[C@@H]3C[C@@H]3F)cn2c1 [Example 50, (1S,2S)—N-(6-(5-amino-3-fluoro-2-methylphenyl)imidazo[1,2-a]pyridin-2-yl)-2-fluorocyclopropane-1-carboxamide]	< 10	10 to 100	10 to 100
Cc1ccc2c(c1-c1ccc3nc(NC(=O)[C@@H]4C[C@@H]4F)cn3c1)CC(=O)N2 [Example 51, (1S,2S)-2-fluoro-N-(6-(5-methyl-2-oxoindolin-4-yl)imidazo[1,2-a]pyridin-2-yl)cyclopropane-1-carboxamide]	< 10	> 1000	> 1000
Cc1cccc(Cl)c1-c1ccc2nc(NC(=O)[C@@H]3C[C@@H]3F)cn2c1 [Example 52, (1S,2S)—N-(6-(2-chloro-6-methylphenyl)imidazo[1,2-a]pyridin-2-yl)-2-fluorocyclopropane-1-carboxamide]	< 10	10 to 100	101 to 1000
Cc1c[nH]c2ncc(-c3ccc4nc(NC(=O)[C@@H]5C[C@@H]5F)cn4c3)cc12 [Example 53, (1S,2S)-2-fluoro-N-(6-(3-methyl-1H-pyrrolo[2,3-b]pyridin-5-yl)imidazo[1,2-a]pyridin-2-yl)cyclopropane-1-carboxamide]	< 10	10 to 100	101 to 1000
O=C(Nc1cn2cc(-c3ccc4sc(=O)[nH]c4c3)ccc2n1)[C@@H]1C[C@@H]1F [Example 54, (1S,2S)-2-fluoro-N-(6-(2-oxo-2,3-dihydrobenzo[d]thiazol-5-yl)imidazo[1,2-a]pyridin-2-yl)cyclopropane-1-carboxamide]	10 to 100	101 to 1000	> 1000
Nc1ccc(-c2ccc3nc(NC(=O)[C@@H]4C[C@@H]4F)cn3c2)cn1 [Example 55, (1S,2S)—N-(6-(6-aminopyridin-3-yl)imidazo[1,2-a]pyridin-2-yl)-2-fluorocyclopropane-1-carboxamide]	10 to 100	101 to 1000	101 to 1000
Cc1ccc(-n2cccn2)cc1-c1ccc2nc(NC(=O)[C@@H]3C[C@@H]3F)cn2c1 [Example 56, (1S,2S)-2-fluoro-N-(6-(2-methyl-5-(1H-pyrazol-1-yl)phenyl)imidazo[1,2-a]pyridin-2-yl)cyclopropane-1-carboxamide]	< 10	101 to 1000	101 to 1000
O=C(Nc1cn2cc(-c3cccc(F)c3CO)ccc2n1)[C@@H]1C[C@@H]1F [Example 57, (1S,2S)-2-fluoro-N-(6-(3-fluoro-2-(hydroxymethyl)phenyl)imidazo[1,2-a]pyridin-2-yl)cyclopropane-1-carboxamide]	< 10	> 1000	> 1000
COc1c(F)cccc1-c1ccc2nc(NC(=O)[C@@H]3C[C@@H]3F)cn2c1 [Example 59, (1S,2S)-2-fluoro-N-(6-(3-fluoro-2-methoxyphenyl)imidazo[1,2-a]pyridin-2-yl)cyclopropanecarboxamide]	< 10	10 to 100	10 to 100
N#Cc1c(F)cccc1-c1ccc2nc(NC(=O)[C@@H]3C[C@@H]3F)cn2c1 [Example 60, (1S,2S)—N-(6-(2-cyano-3-fluorophenyl)imidazo[1,2-a]pyridin-2-yl)-2-fluorocyclopropanecarboxamide]	10 to 100	10 to 100	10 to 100
O=C(Nc1cn2cc(-c3cccc(F)c3Cl)ccc2n1)[C@@H]1C[C@@H]1F [Example 61, (1S,2S)—N-(6-(2-chloro-3-fluorophenyl)imidazo[1,2-a]pyridin-2-yl)-2-fluorocyclopropanecarboxamide]	< 10	10 to 100	10 to 100
O=C(Nc1cn2cc(-c3cccc(F)c3F)ccc2n1)[C@@H]1C[C@@H]1F [Example 62, (1S,2S)—N-(6-(2,3-difluorophenyl)imidazo[1,2-a]pyridin-2-yl)-2-fluorocyclopropanecarboxamide]	< 10	10 to 100	10 to 100
Cc1ccc2[nH]cc(C)c2c1-c1ccc2nc(NC(=O)[C@@H]3C[C@@H]3F)cn2c1 [Example 63, (1S,2S)—N-(6-(3,5-dimethyl-1H-indol-4-yl)imidazo[1,2-a]pyridin-2-yl)-2-fluorocyclopropanecarboxamide]	< 10	10 to 100	101 to 1000
COCc1c(F)cccc1-c1ccc2nc(NC(=O)[C@@H]3C[C@@H]3F)cn2c1 [Example 64, (1S,2S)-2-fluoro-N-(6-(3-fluoro-2-(methoxymethyl)phenyl)imidazo[1,2-a]pyridin-2-yl)cyclopropanecarboxamide]	< 10	101 to 1000	> 1000
O=C(Nc1cn2cc(-c3cccc(F)c3-c3ccco3)ccc2n1)[C@@H]1C[C@@H]1F [Example 65, (1S,2S)-2-fluoro-N-(6-(3-fluoro-2-(furan-2-yl)phenyl)imidazo[1,2-a]pyridin-2-yl)cyclopropanecarboxamide]	10 to 100	> 1000	> 1000
CSc1c(F)cccc1-c1ccc2nc(NC(=O)[C@@H]3C[C@@H]3F)cn2c1 [Example 66, (1S,2S)-2-fluoro-N-(6-(3-fluoro-2-(methylthio)phenyl)imidazo[1,2-a]pyridin-2-yl)cyclopropanecarboxamide]	< 10	10 to 100	101 to 1000
Cc1cc(F)ncc1-c1ccc2nc(NC(=O)[C@@H]3C[C@@H]3F)cn2c1 [Example 67, (1S,2S)-2-fluoro-N-(6-(6-fluoro-4-methylpyridin-3-yl)imidazo[1,2-a]pyridin-2-yl)cyclopropanecarboxamide]	10 to 100	10 to 100	10 to 100
CC(=O)c1c(F)cccc1-c1ccc2nc(NC(=O)[C@@H]3C[C@@H]3F)cn2c1 [Example 68, (1S,2S)—N-(6-(2-acetyl-3-fluorophenyl)imidazo[1,2-a]pyridin-2-yl)-2-fluorocyclopropanecarboxamide]	10 to 100	> 1000	> 1000
Cc1cc(N(C)C)ncc1-c1ccc2nc(NC(=O)[C@@H]3C[C@@H]3F)cn2c1 [Example 69, (1S,2S)—N-(6-(6-(dimethylamino)-4-methylpyridin-3-yl)imidazo[1,2-a]pyridin-2-yl)-2-fluorocyclopropanecarboxamide]	101 to 1000	> 1000	> 1000
Cc1c(F)cccc1-c1ccc2nc(NC(=O)C3CC3)cn2c1 [Example 70, N-(6-(3-fluoro-2-methylphenyl)imidazo[1,2-a]pyridin-2-yl)cyclopropanecarboxamide]	< 10	10 to 100	10 to 100
NCc1c(F)cccc1-c1ccc2nc(NC(=O)[C@@H]3C[C@@H]3F)cn2c1 [Example 74, (1S,2S)—N-(6-(2-(aminomethyl)-3-fluorophenyl)imidazo[1,2-a]pyridin-2-yl)-2-fluorocyclopropanecarboxamide]	> 1000	> 1000	> 1000
CC(=O)NCc1c(F)cccc1-c1ccc2nc(NC(=O)[C@@H]3C[C@@H]3F)cn2c1 [Example 75, (1S,2S)—N-(6-(2-(acetamidomethyl)-3-fluorophenyl)imidazo[1,2-a]pyridin-2-yl)-2-fluorocyclopropanecarboxamide]	101 to 1000	> 1000	> 1000
Cc1c(F)cccc1-c1ccc2nc(NC(=O)C3CCC3)cn2c1 [Example 76, N-(6-(3-fluoro-2-methylphenyl)imidazo[1,2-a]pyridin-2-yl)cyclobutanecarboxamide]	10 to 100	10 to 100	10 to 100
Cc1c(F)cccc1-c1ccc2nc(NC(=O)C3CC(F)C3)cn2c1 (stereo not drawn) [Example 78, 3-fluoro-N-(6-(3-fluoro-2-methylphenyl)imidazo[1,2-a]pyridin-2-yl)cyclobutanecarboxamide]	10 to 100	10 to 100	101 to 1000
Cc1c(F)cccc1-c1ccc2nc(NC(=O)C3CC(F)(F)C3)cn2c1 [Example 79, 3,3-difluoro-N-(6-(3-fluoro-2-methylphenyl)imidazo[1,2-a]pyridin-2-yl)cyclobutanecarboxamide]	10 to 100	101 to 1000	101 to 1000
CNCc1c(F)cccc1-c1ccc2nc(NC(=O)[C@@H]3C[C@@H]3F)cn2c1 [Example 80, (1S,2S)-2-fluoro-N-(6-(3-fluoro-2-((methylamino)methyl)phenyl)imidazo[1,2-a]pyridin-2-yl)cyclopropanecarboxamide]	> 1000	> 1000	> 1000
CC(C)NCc1c(F)cccc1-c1ccc2nc(NC(=O)[C@@H]3C[C@@H]3F)cn2c1 [Example 81, (1S,2S)-2-fluoro-N-(6-(3-fluoro-2-((isopropylamino)methyl)phenyl)imidazo[1,2-a]pyridin-2-yl)cyclopropanecarboxamide]	> 1000	> 1000	> 1000
COCCOCc1c(F)cccc1-c1ccc2nc(NC(=O)[C@@H]3C[C@@H]3F)cn2c1 [Example 82, (1S,2S)-2-fluoro-N-(6-(3-fluoro-2-((2-methoxyethoxy)methyl)phenyl)imidazo[1,2-a]pyridin-2-yl)cyclopropanecarboxamide]	10 to 100	101 to 1000	> 1000
